For orientation: inhibition means the change of the read-out against control, counted positive when it falls. The term CC50 denotes the concentration that lowers cell viability or growth by half.

Molecules are shown by their SMILES.

One data set has as its system HIV-IIIb. The experiment in a line: Test A: Antiviral assay in MT4 cells. The data set is classed as cell-based, HIV-1. The conditions noted are these: Human immunodeficiency virus 1, IIIB, MT4, 120 h, read-out: % inhibition at 2 μM, percent inhibition of virus-induced cell killing, from dose response curve at 2 uM drug; MT-4 cells infected with HIV-IIIb, 5 days, CellTiter-Glo. (In general: In ATP-based viability assays light output follows the ATP content of the culture.)

A short description of a further data set: in vitro. The conditions noted are these: human, uninfected MT-4 cells, CC50 (nM), same protocol as Test A, CellTiter-Glo. On the procedure:
For the antiviral assay, 40 μL of 1× test concentration of 3-fold serially diluted compound in culture medium with 10% FBS was added to each well of a 384-well plate (10 concentrations) in quadruplicate. MT-4 cells were next mixed with HIV-IIIb at an m.o.i of 0.003 for 1 hour, after which time 35 μL of virus/cell mixture (2000 cells) was immediately added to each well containing 40 μL of diluted compound. The plates were then incubated at 37° C. for 5 days. After 5 days of incubation, 25 μl of 2× concentrated CellTiter-Glo™ Reagent (catalog #G7571, Promega Biosciences, Inc., Madison, Wis.) was added to each well containing MT-4 cells. Cell lysis was carried out by incubating at room temperature for 10 min and then chemiluminescence was read.
Test B: Cytotoxicity Assay
Compound cytotoxicity and the corresponding CC50 values was determined using the same protocol as described in the antiviral assay (Test A) except that uninfected cells were used.

On to `COc1ccc(-c2cccnc2[C@H](Cc2cc(F)cc(F)c2)NC(=O)Cc2c[nH]c3ccc(O)cc23)cc1` [Example 13G, (S)—N-(2-(3,5-difluorophenyl)-1-(3-(4-methoxyphenyl)pyridin-2-yl)ethyl)-2-(5-hydroxy-1H-indol-3-yl)acetamide], for which the inhibition at 2 µM in the data set with HIV-IIIb was determined as 97%. For the same molecule, the cytotoxic concentration (CC50) at 5 days in the data set “in vitro” came to 25600 nM.

Turning to `Cc1ccccc1-c1cccnc1[C@H](Cc1ccccc1)NC(=O)Cc1c[nH]c2ccc(O)cc12` [Example 14, (S)-2-(5-hydroxy-1H-indol-3-yl)-N-(2-phenyl-1-(3-o-tolylpyridin-2-yl)ethyl)acetamide], in the data set with HIV-IIIb, the inhibition at 2 µM worked out at 76%. Further, it took 25400 nM to reach half-maximal cytotoxicity in “in vitro” (CC50 at 5 days).

Regarding `Cc1ccccc1-c1cccnc1[C@@H](Cc1ccccc1)NC(=O)Cc1c[nH]c2ccc(O)cc12` [Example 15, (R)-2-(5-hydroxy-1H-indol-3-yl)-N-(2-phenyl-1-(3-o-tolylpyridin-2-yl)ethyl)acetamide], in the data set with HIV-IIIb, the inhibition at 2 µM came to 0%. In addition, it took 28200 nM to reach half-maximal cytotoxicity in the data set “in vitro” (CC50 at 5 days).

Regarding `Cc1ccccc1-c1cccnc1[C@@H](Cc1ccccc1)NC(=O)Cn1nc(C(F)(F)F)c2c1CCCC2` [Example 16, (R)—N-(2-phenyl-1-(3-o-tolylpyridin-2-yl)ethyl)-2-(3-(trifluoromethyl)-4,5,6,7-tetrahydro-1H-indazol-1-yl)acetamide], the inhibition at 2 µM in the data set on HIV-IIIb is 0%. In addition, the CC50 at 5 days in the data set “in vitro” stood at 14000 nM.

On to `Cc1ccccc1-c1cccnc1[C@H](Cc1ccccc1)NC(=O)Cn1nc(C(F)(F)F)c2c1CCCC2` [Example 17, (S)—N-(2-phenyl-1-(3-o-tolylpyridin-2-yl)ethyl)-2-(3-(trifluoromethyl)-4,5,6,7-tetrahydro-1H-indazol-1-yl)acetamide], for which the inhibition at 2 µM in the data set with HIV-IIIb came out at 70%. This molecule displayed a half-maximal cytotoxic concentration (CC50) at 5 days in the data set “in vitro” of 13800 nM.

Turning to `COc1ccc(-c2cccnc2[C@@H](Cc2ccccc2)NC(=O)Cn2nc(C(F)(F)F)c3c2CCCC3)c(C)c1` [Example 18, (R)—N-(1-(3-(4-methoxy-2-methylphenyl)pyridin-2-yl)-2-phenylethyl)-2-(3-(trifluoromethyl)-4,5,6,7-tetrahydro-1H-indazol-1-yl)acetamide], the inhibition at 2 µM in the data set with HIV-IIIb turned out to be 0%. In addition, it took 14600 nM to reach half-maximal cytotoxicity in “in vitro” (CC50 at 5 days).

Consider `COc1ccc(-c2cccnc2[C@H](Cc2ccccc2)NC(=O)Cn2nc(C(F)(F)F)c3c2CCCC3)c(C)c1` [Example 19, (S)—N-(1-(3-(4-methoxy-2-methylphenyl)pyridin-2-yl)-2-phenylethyl)-2-(3-(trifluoromethyl)-4,5,6,7-tetrahydro-1H-indazol-1-yl)acetamide], for which the inhibition at 2 µM in the data set on HIV-IIIb came to 25%. This molecule also yielded a CC50 at 5 days in the data set “in vitro” of 14200 nM.

Turning to `COc1ccc(-c2cccnc2[C@H](Cc2ccccc2)NC(=O)Cc2c[nH]c3ccc(O)cc23)cc1` [Example 20, (S)-2-(5-hydroxy-1H-indol-3-yl)-N-(1-(3-(4-methoxyphenyl)pyridin-2-yl)-2-phenylethyl)acetamide], the inhibition at 2 µM in the data set with HIV-IIIb was found to be 84%. The molecule also gave a half-maximal cytotoxic concentration (CC50) at 5 days in “in vitro” of 48300 nM.

In the case of `COc1ccc(-c2cccnc2[C@H](Cc2ccccc2)NC(=O)Cn2nc(C(F)(F)F)c3c2CCCC3)cc1` [Example 21, (S)—N-(1-(3-(4-methoxyphenyl)pyridin-2-yl)-2-phenylethyl)-2-(3-(trifluoromethyl)-4,5,6,7-tetrahydro-1H-indazol-1-yl)acetamide], in the data set on HIV-IIIb, the inhibition at 2 µM was found to be 28%. The molecule further yielded a cytotoxic concentration (CC50) at 5 days in the data set “in vitro” of 15500 nM.

For the molecule `COc1ccc(-c2cccnc2[C@@H](Cc2ccccc2)NC(=O)Cc2c[nH]c3ccc(O)cc23)cc1` [Example 22, (R)-2-(5-hydroxy-1H-indol-3-yl)-N-(1-(3-(4-methoxyphenyl)pyridin-2-yl)-2-phenylethyl)acetamide], the inhibition at 2 µM in the data set on HIV-IIIb is 0%. Besides, the CC50 at 5 days in “in vitro” stood at 45700 nM.

With `COc1ccc(-c2cccnc2[C@@H](Cc2ccccc2)NC(=O)Cn2nc(C(F)(F)F)c3c2CCCC3)cc1` [Example 23, (R)—N-(1-(3-(4-methoxyphenyl)pyridin-2-yl)-2-phenylethyl)-2-(3-(trifluoromethyl)-4,5,6,7-tetrahydro-1H-indazol-1-yl)acetamide], the inhibition at 2 µM in the data set on HIV-IIIb stood at 0%. Moreover, the cytotoxic concentration (CC50) at 5 days in “in vitro” is 13800 nM.

Regarding `Cc1ccccc1-c1cccnc1[C@H](Cc1cccc(F)c1)NC(=O)Cc1c[nH]c2ccc(O)cc12` [Example 24, (S)—N-(2-(3-fluorophenyl)-1-(3-o-tolylpyridin-2-yl)ethyl)-2-(5-hydroxy-1H-indol-3-yl)acetamide], the inhibition at 2 µM with HIV-IIIb worked out at 39%. Besides, in “in vitro”, the CC50 at 5 days turned out to be 24800 nM.

Consider `Cc1ccccc1-c1cccnc1[C@H](Cc1cccc(F)c1)NC(=O)Cn1nc(C(F)(F)F)c2c1CCCC2` [Example 25, (S)—N-(2-(3-fluorophenyl)-1-(3-o-tolylpyridin-2-yl)ethyl)-2-(3-(trifluoromethyl)-4,5,6,7-tetrahydro-1H-indazol-1-yl)acetamide], for which, in the data set with HIV-IIIb, the inhibition at 2 µM is 71%. Besides, the CC50 at 5 days in “in vitro” was found to be 11900 nM.

Turning to `Cc1ccccc1-c1cccnc1[C@H](Cc1cc(F)cc(F)c1)NC(=O)Cc1c[nH]c2ccc(O)cc12` [Example 26, (S)—N-(2-(3,5-difluorophenyl)-1-(3-o-tolylpyridin-2-yl)ethyl)-2-(5-hydroxy-1H-indol-3-yl)acetamide], the inhibition at 2 µM in the data set on HIV-IIIb turned out to be 70%. In the data set “in vitro”, the 50% cytotoxic concentration (CC50) at 5 days amounted to 24500 nM.

For the molecule `Cc1ccccc1-c1cccnc1[C@H](Cc1cc(F)cc(F)c1)NC(=O)Cn1nc(C(F)(F)F)c2c1CCCC2` [Example 27, (S)—N-(2-(3,5-difluorophenyl)-1-(3-o-tolylpyridin-2-yl)ethyl)-2-(3-(trifluoromethyl)-4,5,6,7-tetrahydro-1H-indazol-1-yl)acetamide], the inhibition at 2 µM in the data set on HIV-IIIb is 72%. For the same molecule, the CC50 at 5 days in “in vitro” turned out to be 12000 nM.

Take `COc1ccc(-c2cccnc2[C@H](Cc2cccc(F)c2)NC(=O)Cc2c[nH]c3ccc(O)cc23)cc1` [Example 28, (S)—N-(2-(3-fluorophenyl)-1-(3-(4-methoxyphenyl)pyridin-2-yl)ethyl)-2-(5-hydroxy-1H-indol-3-yl)acetamide]: in the data set on HIV-IIIb, the inhibition at 2 µM is 93%. The CC50 at 5 days in the data set “in vitro” stood at 26000 nM.

For the molecule `COc1ccc(-c2cccnc2[C@H](Cc2cccc(F)c2)NC(=O)Cn2nc(C(F)(F)F)c3c2CCCC3)cc1` [Example 29, (S)—N-(2-(3-fluorophenyl)-1-(3-(4-methoxyphenyl)pyridin-2-yl)ethyl)-2-(3-(trifluoromethyl)-4,5,6,7-tetrahydro-1H-indazol-1-yl)acetamide], the inhibition at 2 µM in the data set on HIV-IIIb was 36%. Further, the CC50 at 5 days in the data set “in vitro” is 13200 nM.

As for `COc1ccc(-c2cccnc2[C@H](Cc2cc(F)cc(F)c2)NC(=O)Cn2nc(C(F)(F)F)c3c2CCCC3)cc1` [Example 30, (S)—N-(2-(3,5-difluorophenyl)-1-(3-(4-methoxyphenyl)pyridin-2-yl)ethyl)-2-(3-(trifluoromethyl)-4,5,6,7-tetrahydro-1H-indazol-1-yl)acetamide], the inhibition at 2 µM in the data set on HIV-IIIb was found to be 76%. In addition, the 50% cytotoxic concentration (CC50) at 5 days in the data set “in vitro” is 11900 nM.

In the case of `O=C(Cc1c[nH]c2ccccc12)N[C@@H](Cc1cc(F)cc(F)c1)c1ncccc1-c1ccc(Cl)cc1` [Example 31, (S)—N-(1-(3-(4-chlorophenyl)pyridin-2-yl)-2-(3,5-difluorophenyl)ethyl)-2-(1H-indol-3-yl)acetamide], the inhibition at 2 µM in the data set with HIV-IIIb was determined as 34%. The CC50 at 5 days in the data set “in vitro” was 8630 nM.

Regarding `O=C(Cc1c[nH]c2ccc(F)cc12)N[C@@H](Cc1cc(F)cc(F)c1)c1ncccc1-c1ccc(Cl)cc1` [Example 33, (S)—N-(1-(3-(4-chlorophenyl)pyridin-2-yl)-2-(3,5-difluorophenyl)ethyl)-2-(5-fluoro-1H-indol-3-yl)acetamide], the inhibition at 2 µM in the data set with HIV-IIIb amounted to 75%. In addition, the midpoint of cytotoxicity in the data set “in vitro”, the CC50 at 5 days, lay at 9750 nM.

For the molecule `COc1ccc(-c2cccnc2[C@H](Cc2cc(F)cc(F)c2)NC(=O)Cc2c[nH]c3cc(OC)c(OCc4ccccc4)cc23)cc1` [Example 34E, (S)-2-(5-(benzyloxy)-6-methoxy-1H-indol-3-yl)-N-(2-(3,5-difluorophenyl)-1-(3-(4-methoxyphenyl)pyridin-2-yl)ethyl)acetamide], the inhibition at 2 µM with HIV-IIIb turned out to be 0%. This molecule gave a cytotoxic concentration (CC50) at 5 days in “in vitro” of 27800 nM.

Turning to `COc1ccc(-c2cccnc2[C@H](Cc2cc(F)cc(F)c2)NC(=O)Cc2c[nH]c3ccc(NS(C)(=O)=O)cc23)cc1` [Example 35G, (S)—N-(2-(3,5-difluorophenyl)-1-(3-(4-methoxyphenyl)pyridin-2-yl)ethyl)-2-(5-(methylsulfonamido)-1H-indol-3-yl)acetamide], in the data set with HIV-IIIb, the inhibition at 2 µM is 49%. This molecule also had a half-maximal cytotoxic concentration (CC50) at 5 days in the data set “in vitro” of 22400 nM.

Consider `O=C(Cc1c[nH]c2ccc(=O)[nH]c12)N[C@@H](Cc1cc(F)cc(F)c1)c1ncccc1-c1ccc(Cl)cc1` [Example 37, (S)—N-(1-(3-(4-chlorophenyl)pyridin-2-yl)-2-(3,5-difluorophenyl)ethyl)-2-(5-oxo-4,5-dihydro-1H-pyrrolo[3,2-b]pyridin-3-yl)acetamide], for which the inhibition at 2 µM in the data set with HIV-IIIb came out at 84%. This molecule gave a half-maximal cytotoxic concentration (CC50) at 5 days in the data set “in vitro” of 34200 nM.

Regarding `O=C(Cc1c[nH]c2ccc(O)cc12)N[C@@H](Cc1cc(F)cc(F)c1)c1ncccc1Br` [Example 38D, (S)—N-(1-(3-bromopyridin-2-yl)-2-(3,5-difluorophenyl)ethyl)-2-(5-hydroxy-1H-indol-3-yl)acetamide], in the data set with HIV-IIIb, the inhibition at 2 µM is 3%. Further, in “in vitro”, the 50% cytotoxic concentration (CC50) at 5 days amounted to 42600 nM.

These data come from patent US9540343B2 (Gilead Sciences, Inc., priority 2011, dated 2017).
